In publication PMC2784880 (2009):

Biological target: T1, trypanothione synthetase-amidase (TRYS) (Trypanosoma brucei, UniProt Q586P2)
T1 sequence (Q586P2 1-627): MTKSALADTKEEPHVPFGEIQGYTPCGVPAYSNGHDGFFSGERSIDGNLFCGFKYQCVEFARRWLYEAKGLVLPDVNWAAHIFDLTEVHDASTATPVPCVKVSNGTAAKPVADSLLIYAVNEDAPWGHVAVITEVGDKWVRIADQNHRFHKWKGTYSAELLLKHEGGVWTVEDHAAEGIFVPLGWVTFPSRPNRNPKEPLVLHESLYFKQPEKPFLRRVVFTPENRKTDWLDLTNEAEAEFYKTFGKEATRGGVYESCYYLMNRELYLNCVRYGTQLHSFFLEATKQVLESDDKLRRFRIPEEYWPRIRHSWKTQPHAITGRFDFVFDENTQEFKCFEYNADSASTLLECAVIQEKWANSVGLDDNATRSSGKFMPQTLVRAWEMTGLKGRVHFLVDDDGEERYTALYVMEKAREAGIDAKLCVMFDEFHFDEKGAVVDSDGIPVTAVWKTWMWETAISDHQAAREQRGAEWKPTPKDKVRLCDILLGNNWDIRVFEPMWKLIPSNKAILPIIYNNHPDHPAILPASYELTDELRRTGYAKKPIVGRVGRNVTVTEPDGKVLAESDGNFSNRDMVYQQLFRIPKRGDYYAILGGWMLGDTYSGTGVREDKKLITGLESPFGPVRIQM
Experiment: inhibition of recombinant TRYS
Assay type: biochemical

CN(C)CCCNC(=O)Cn1nc(-c2cccc(F)c2)c2ccccc21 [DDU 86439, N-(3-(dimethylamino)propyl)-2-(3-(3-fluorophenyl)-1H-indazol-1-yl)acetamide]
IC50: 45 nM
